In experiment [1] the target is recombinant RORγ Ligand Binding Domain (LBD) protein (Homo sapiens (Human), UniProt P51449). The experiment can be described thus: Radio-Ligand RORγ Binding Assay (Assay 1). Conditions: competition with 25-hydroxy [26,27-3H]-cholesterol, SPA; Table 9; read-out: RORγ Binding Ki Range*. In short, it runs like this: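 Scintillation proximity competition binding of 8.6 nM stock 25-hydroxy[26,27-3H]cholesterol to 24 nM stock 6×His-GST-tagged human RORγ LBD, in 50 mM HEPES pH 7.4 with NaCl, MgCl2, glycerol, CHAPS, β-octylglucopyranoside and DTT, room temperature. Inhibition referenced to DMSO and 10 μM T0901317; IC50 by four-parameter fit, converted to Ki using radioligand concentration and KD.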
Chain of recombinant RORγ Ligand Binding Domain (LBD) protein (P51449 269-508): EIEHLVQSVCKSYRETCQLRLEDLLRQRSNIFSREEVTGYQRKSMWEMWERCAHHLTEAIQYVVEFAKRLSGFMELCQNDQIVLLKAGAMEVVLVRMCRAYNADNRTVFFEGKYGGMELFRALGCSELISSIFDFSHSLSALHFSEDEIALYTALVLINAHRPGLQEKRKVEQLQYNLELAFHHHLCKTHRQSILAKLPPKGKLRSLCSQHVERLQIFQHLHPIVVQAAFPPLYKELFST

Experiment [2] has as its target full-length RORγt in Jurkat cells (Homo sapiens (Human), UniProt P51449). The experiment can be described thus: RORγt 5xRORE Assay in Jurkat Cells (Assay 2). Type of experiment: cell-based. The conditions noted are these: Nanoluc luciferase reporter, 16-18 hrs, Table 9, read-out: RORγt5X IC50 Range*. In short, it runs like this:
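Jurkat cells co-transfected with full-length RORγt expression plasmid and a 5×RORE-driven secreted Nanoluc reporter, then plated at 80,000 cells/well in phenol-red-free RPMI with 10% delipidated FBS. Compounds added at 0.1% DMSO for 16–18 h at 37 °C; supernatant luciferase read for inverse agonism.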
A general note: A reporter such as luciferase makes a cellular process visible.

For 50 molecules, Ki and IC50 results are on record in US9868748B2, “Thiazolopyrrolidine inhibitors of ROR- γ” (Vitae Pharmaceuticals, Inc., priority 2013, dated 2018).

Chain of full-length RORγt in Jurkat cells (P51449 other isoform, or with tags, fused parts or gaps): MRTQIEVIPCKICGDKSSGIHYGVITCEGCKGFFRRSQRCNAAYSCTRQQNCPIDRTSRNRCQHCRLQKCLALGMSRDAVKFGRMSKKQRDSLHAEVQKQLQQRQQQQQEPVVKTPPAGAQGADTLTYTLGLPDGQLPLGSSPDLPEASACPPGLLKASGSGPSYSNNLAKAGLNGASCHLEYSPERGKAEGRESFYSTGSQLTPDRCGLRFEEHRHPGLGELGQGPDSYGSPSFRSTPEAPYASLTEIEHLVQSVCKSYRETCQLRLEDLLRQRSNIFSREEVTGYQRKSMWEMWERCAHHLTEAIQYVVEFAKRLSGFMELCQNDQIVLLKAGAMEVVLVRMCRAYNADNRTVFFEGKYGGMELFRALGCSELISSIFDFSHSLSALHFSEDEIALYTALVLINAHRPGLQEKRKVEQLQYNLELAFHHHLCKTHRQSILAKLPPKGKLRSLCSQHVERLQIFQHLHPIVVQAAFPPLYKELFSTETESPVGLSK

As usually defined, the Ki is the equilibrium dissociation constant of an inhibitor or competing ligand from its target. As usually defined, the IC50 is the midpoint of a concentration-inhibition curve. For the molecule `CCS(=O)(=O)c1ccc(CC(=O)Nc2nc3c(s2)CN(CCc2ccc(Cl)cc2)[C@H]3C(C)C)cc1`, the Ki in experiment [1] is less than 100 nM. The half-maximal inhibitory concentration (IC50) in experiment [2] is more than 1000 nM.
In the case of `CCS(=O)(=O)c1ccc(CC(=O)Nc2nc3c(s2)CN(Cc2ccc(=O)n(C4CC4)c2)[C@H]3C(C)C)cc1`, the Ki in experiment [1] is less than 100 nM. The IC50 in experiment [2] lay within 100 to 1000 nM.
Taken in the same sequence, the figures for `CCS(=O)(=O)c1ccc(CC(=O)Nc2nc3c(s2)CN(c2nc4cccnc4s2)[C@H]3C(C)C)cc1` were less than 100 nM and more than 1000 nM.
For `CCS(=O)(=O)c1ccc(CC(=O)Nc2nc3c(s2)CN(Cc2ccc(Cl)cc2)[C@H]3C(C)C)c(C#N)c1`, the inhibitory constant (Ki) in experiment [1] is less than 100 nM. Also, the IC50 in experiment [2] is less than 100 nM.
As to `CCS(=O)(=O)c1ccc(CC(=O)Nc2nc3c(s2)CN(CC2CCS(=O)(=O)CC2)[C@H]3C(C)C)cc1`, the Ki in experiment [1] is less than 100 nM. The IC50 in experiment [2] is more than 1000 nM.
Taken in the same sequence, the figures for `CCS(=O)(=O)c1ccc(CC(=O)Nc2nc3c(s2)CN(Cc2ccc(Cl)cc2)[C@H]3C(C)C)c(Cl)c1` were less than 100 nM and less than 100 nM.
Taken in the same sequence, the figures for `CCS(=O)(=O)c1ccc(CNC(=O)c2nc3c(s2)CN(C[C@H]2CC[C@H](C(F)(F)F)CC2)[C@H]3C(C)C)nc1` were 100 to 1000 nM and 100 to 1000 nM.
Taken in the same sequence, the figures for `CCS(=O)(=O)c1ccc(CC(=O)Nc2nc3c(s2)CN(CC2CN(CC(F)(F)F)C2)[C@H]3C(C)C)cc1` were less than 100 nM and 100 to 1000 nM.
Turning to `CCS(=O)(=O)c1ccc(CC(=O)Nc2nc3c(s2)CN(Cc2ccc(=O)n(C(F)F)c2)[C@H]3C(C)C)cc1`, the Ki in experiment [1] was less than 100 nM. Besides, the IC50 in experiment [2] is more than 1000 nM.
Taken in the same sequence, the figures for `CCS(=O)(=O)c1ccc(CC(=O)Nc2nc3c(s2)CN(Cc2ccc(C#N)c(F)c2)[C@@H]3C(C)C)cc1` were 100 to 1000 nM and 100 to 1000 nM.
Taken in the same sequence, the figures for `CC(C)[C@@H]1c2nc(NC(=O)Cc3ccc(S(C)(=O)=O)cc3)sc2CN1Cc1cccc(C#N)c1` were 100 to 1000 nM and more than 1000 nM.
For `CC(C)[C@@H]1c2nc(NC(=O)Cc3ccc(S(C)(=O)=O)cc3)sc2CN1Cc1cccc(Br)c1`, in that order: less than 100 nM and more than 1000 nM.
As to `CC(C)[C@@H]1c2nc(NC(=O)Cc3ccc(S(C)(=O)=O)cc3)sc2CN1Cc1cccc(Cl)c1`, in experiment [1], the Ki is less than 100 nM. Also, the IC50 in experiment [2] is more than 1000 nM.
For `CC(C)[C@@H]1c2nc(NC(=O)Cc3ccc(S(C)(=O)=O)cc3)sc2CN1Cc1cccc(F)c1`, in that order: less than 100 nM and more than 1000 nM.
Taken in the same sequence, the figures for `CC(C)[C@@H]1c2nc(NC(=O)Cc3ccc(S(C)(=O)=O)cc3)sc2CN1Cc1ccc(Cl)cc1` were 100 to 1000 nM and 100 to 1000 nM.
For `CCS(=O)(=O)c1ccc(CC(=O)Nc2nc3c(s2)CN(CCc2ccccc2)[C@@H]3C(C)C)cc1`, in that order: less than 100 nM and more than 1000 nM.
Turning to `CCS(=O)(=O)c1ccc(CC(=O)Nc2nc3c(s2)CN(Cc2cccc(Br)c2)[C@@H]3C(C)C)cc1`, the Ki in experiment [1] was less than 100 nM. Moreover, the IC50 in experiment [2] is more than 1000 nM.
For `CCS(=O)(=O)c1ccc(CC(=O)Nc2nc3c(s2)CN(Cc2ccc(C(F)(F)F)cc2)[C@@H]3C(C)C)cc1`, in that order: less than 100 nM and 100 to 1000 nM.
Taken in the same sequence, the figures for `CC(C)[C@@H]1c2nc(NC(=O)Cc3ccc(S(C)(=O)=O)cc3)sc2CN1Cc1ccc(OC(F)F)cc1` were 100 to 1000 nM and 100 to 1000 nM.
In the case of `CC(C)[C@@H]1c2nc(NC(=O)Cc3ccc(S(C)(=O)=O)cc3)sc2CN1Cc1ccc(OC(F)F)cc1F`, the Ki in experiment [1] was in the range of 100 to 1000 nM. Also, the IC50 in experiment [2] is 100 to 1000 nM.
`CCS(=O)(=O)c1ccc(CC(=O)Nc2nc3c(s2)CN(Cc2cc(OC(F)F)ccc2F)[C@@H]3C(C)C)cc1`: the inhibitory constant (Ki) in experiment [1] was less than 100 nM. Also, the IC50 in experiment [2] is more than 1000 nM.
Taken in the same sequence, the figures for `CC[C@@H]1c2nc(NC(=O)Cc3ccc(S(=O)(=O)CC)cc3)sc2CN1Cc1ccccc1F` were less than 100 nM and more than 1000 nM.
Taken in the same sequence, the figures for `CCS(=O)(=O)c1ccc(CC(=O)Nc2nc3c(s2)CN(Cc2cccc(F)c2)[C@@H]3C(C)C)cc1` were less than 100 nM and more than 1000 nM.
For `CC[C@@H]1c2nc(NC(=O)Cc3ccc(S(C)(=O)=O)cc3)sc2CN1Cc1cccc(C(F)(F)F)c1`, the Ki in experiment [1] is less than 100 nM. Besides, the IC50 in experiment [2] is more than 1000 nM.
For `CCS(=O)(=O)c1ccc(CC(=O)Nc2nc3c(s2)CN(Cc2ccccc2)[C@@H]3C(C)C)cc1`, in that order: less than 100 nM and more than 1000 nM.
For `CCS(=O)(=O)c1ccc(CC(=O)Nc2nc3c(s2)CN(c2nccc(C4CC4)n2)[C@@H]3C(C)C)cc1`, in that order: less than 100 nM and more than 1000 nM.
As for `CCS(=O)(=O)c1ccc(CC(=O)Nc2nc3c(s2)CN(Cc2cc(OC(F)(F)F)ccc2F)[C@@H]3C(C)C)cc1`, the Ki in experiment [1] was less than 100 nM. The IC50 in experiment [2] was more than 1000 nM.
Taken in the same sequence, the figures for `CCS(=O)(=O)c1ccc(CC(=O)Nc2nc3c(s2)CN(Cc2ccc(C#N)cc2)[C@@H]3C(C)C)cc1` were 100 to 1000 nM and 100 to 1000 nM.
Taken in the same sequence, the figures for `CCS(=O)(=O)c1ccc(CC(=O)Nc2nc3c(s2)CN(C(C)c2cccc(C(F)(F)F)c2)[C@@H]3C(C)C)cc1` (stereo partly shown) were less than 100 nM and more than 1000 nM.
For `CCS(=O)(=O)c1ccc(CC(=O)Nc2nc3c(s2)CN(Cc2cccc(S(C)(=O)=O)c2)[C@@H]3C(C)C)cc1`, in that order: 100 to 1000 nM and more than 1000 nM.
With `CCS(=O)(=O)c1ccc(CC(=O)Nc2nc3c(s2)CN(C(C)c2ccc(F)cc2)[C@@H]3C(C)C)cc1` (stereo partly shown), in experiment [1], the Ki was less than 100 nM. For the same molecule, the IC50 in experiment [2] was more than 1000 nM.
Taken in the same sequence, the figures for `CCS(=O)(=O)c1ccc(CC(=O)Nc2nc3c(s2)CN(Cc2cc(C(F)(F)F)cc(C(F)(F)F)c2)[C@@H]3C(C)C)cc1` were less than 100 nM and more than 1000 nM.
For `CCS(=O)(=O)c1ccc(CC(=O)Nc2nc3c(s2)CN(Cc2cc(OC)cc(OC)c2)[C@@H]3C(C)C)cc1`, in that order: less than 100 nM and more than 1000 nM.
For `CCS(=O)(=O)c1ccc(CC(=O)Nc2nc3c(s2)CN(Cc2cc(Cl)ccc2Cl)[C@@H]3C(C)C)cc1`, in that order: less than 100 nM and more than 1000 nM.
Turning to `CCS(=O)(=O)c1ccc(CC(=O)Nc2nc3c(s2)CN(Cc2ccc(OC(F)(F)F)cc2)[C@@H]3C(C)C)cc1`, the Ki in experiment [1] was less than 100 nM. For the same molecule, the IC50 in experiment [2] lay within 100 to 1000 nM.
Taken in the same sequence, the figures for `CCS(=O)(=O)c1ccc(CC(=O)Nc2nc3c(s2)CN(Cc2ccc(C(F)(F)F)c(Cl)c2)[C@@H]3C(C)C)cc1` were less than 100 nM and 100 to 1000 nM.
For `CCS(=O)(=O)c1ccc(CC(=O)Nc2nc3c(s2)CN(Cc2ccc(F)cc2)[C@@H]3C(C)C)cc1`, in that order: less than 100 nM and more than 1000 nM.
On to `CCS(=O)(=O)c1ccc(CC(=O)Nc2nc3c(s2)CN(Cc2ccc(OC)cc2)[C@@H]3C(C)C)cc1`, for which, in experiment [1], the Ki was less than 100 nM. Moreover, the IC50 in experiment [2] is more than 1000 nM.
With `CCS(=O)(=O)c1ccc(CC(=O)Nc2nc3c(s2)CN(Cc2cccc(C(F)(F)F)c2)[C@@H]3C(C)C)cc1`, the Ki in experiment [1] was less than 100 nM. In experiment [2], the IC50 was more than 1000 nM.
For `Cc1cc(C(F)(F)F)nc(N2Cc3sc(NC(=O)Cc4ccc(S(C)(=O)=O)cc4)nc3[C@H]2C(C)C)n1`, in that order: 100 to 1000 nM and more than 1000 nM.
On to `CCS(=O)(=O)c1ccc(CC(=O)Nc2nc3c(s2)CN(c2nc(C)cc(C(F)(F)F)n2)[C@@H]3C(C)C)cc1`, for which, in experiment [1], the Ki was less than 100 nM. In addition, the IC50 in experiment [2] was more than 1000 nM.
For `CCS(=O)(=O)c1ccc(CC(=O)Nc2nc3c(s2)CN(C[C@H]2C[C@H](C#N)C2)[C@H]3C(C)C)cc1` (relative stereo), in that order: less than 100 nM and more than 1000 nM.
Taken in the same sequence, the figures for `CCS(=O)(=O)c1ccc(CC(=O)Nc2nc3c(s2)CN(C[C@@H]2CC[C@H](C(F)(F)F)OC2)[C@H]3C(C)C)cc1` (relative stereo) were less than 100 nM and more than 1000 nM.
For `CCS(=O)(=O)c1ccc(CC(=O)Nc2nc3c(s2)CN([C@H]2COc4cc(Cl)ccc42)[C@H]3C(C)C)cc1` (relative stereo), in that order: less than 100 nM and less than 100 nM.
For `CCS(=O)(=O)c1ccc(CC(=O)Nc2nc3c(s2)CN(C[C@@H]2CC[C@H](C(F)(F)F)N(C)C2)[C@H]3C(C)C)cc1` (relative stereo), the Ki in experiment [1] was less than 100 nM. Also, the IC50 in experiment [2] is more than 1000 nM.
Consider `CCS(=O)(=O)c1ccc(CC(=O)Nc2nc3c(s2)CN(C[C@H]2CCCCO2)[C@H]3C(C)C)cc1` (relative stereo), for which the Ki in experiment [1] is less than 100 nM. Besides, the IC50 in experiment [2] was more than 1000 nM.
For `CCS(=O)(=O)c1ccc(CNC(=O)c2nc3c(s2)CN(C[C@H]2CC[C@@H](C(F)(F)F)CC2)[C@H]3C(C)C)cc1` (relative stereo), in that order: less than 100 nM and more than 1000 nM.
As for `CCS(=O)(=O)c1ccc(CC(=O)Nc2nc3c(s2)CN(C[C@@H]2CCCCO2)[C@H]3C(C)C)cc1` (relative stereo), the Ki in experiment [1] was less than 100 nM. Further, the IC50 in experiment [2] is more than 1000 nM.
Taken in the same sequence, the figures for `CCS(=O)(=O)c1ccc(CNC(=O)c2nc3c(s2)CN(C[C@H]2CC[C@H](C(F)(F)F)CC2)[C@H]3C(C)C)cc1` (relative stereo) were less than 100 nM and 100 to 1000 nM.
For `CCS(=O)(=O)c1ccc(CNC(=O)c2nc3c(s2)CN(C[C@H]2CN(C(=O)OC(C)(C)C)CCO2)[C@H]3C(C)C)cc1` (relative stereo), in that order: less than 100 nM and 100 to 1000 nM.
